Values of other authors in patent publication US20160120822A1, “COMPOSITION CONTAINING ROTIGOTINE AND USE THEREOF AND TRANSDERMAL PATCH CONTAINING THE COMPOSITION” (Jiangsu Kangbeide Pharmaceuticals Co. Ltd., priority 2007, published 2016).

Settings: oral formulations

CCCN(CCc1cccs1)[C@H]1CCc2c(O)cccc2C1 [Rotigotine]
clearance after oral intake: overly high | duration of action after oral intake: relatively short
